Source: patent publication US20100178277A1, “METHODS AND COMPOSITIONS FOR STIMULATING CELLS” (MEDIVATION NEUROLOGY, INC., priority 2007, published 2010)

Key:
[1] = system: primary rat cortical neurons; experiment: Neurite outgrowth of primary rat cortical neurons cultured with dimebon; format: cell-based; conditions: low concentrations (picomolar and nanomolar); 3 days growth; FIG. 1
Procedure: (§1) Standard methods were used to isolate cortical neurons and spinal motor neurons. For the isolation of primary rat cortical neurons, the fetal brain from a pregnant rat at 17 days of gestation was prepared in Leibovitz's medium (L15; Gibco). The cortex was dissected out, and the meninges were removed. Trypsin (Gibco) was used to dissociate cortical neurons for 30 minutes at 37° C. with DNAse I. The cells were triturated in a 10 mL pipette in Dulbecco's Modified Eagle Media (“DMEM”; Gibco) with 10% Fetal Bovine Serum (“FBS”) (Gibco) and centrifuged at 350×g for 10 minutes at room temperature. The cells were suspended in Neurobasal medium supplemented with 2% B27 (Gibco) and 0.5 mM L-glutamine (Gibco). […] The results were expressed as mean (s.e.m.). […]
(§2) Primary neuronal cultures were prepared from rat fetal tissue on the gestation days indicated from the cortex (day 17), hippocampus (day 19) or spine (day 15). […] Neurite length was calculated using Image-Pro Plus. […] Mitochondrial effects were assessed with primary rat hippocampal cells treated with Dimebon or vehicle and 0.25 μM ionomycin. Dimebon's effects on JC-1 mitochondrial staining was also assessed in ionomycin-treated human neuroblastoma cells (SK—N—SH). Mitochondrial accumulation of JC-1 was assessed by fluorescence microscopy.

[2] = system: primary rat hippocampal neurons; experiment: Neurite outgrowth of primary rat hippocampal neurons cultured with dimebon; format: cell-based
Procedure: To isolate hippocampal neurons, a female rat of 19 days gestation was killed by cervical dislocation, and the fetuses were removed from the uterus. Their brains were removed and placed in ice-cold medium of Leibovitz (L15, Gibco, Invitrogen). Meninges were carefully removed, and the hippocamps were dissected out. The hippocampal neurons were dissociated by trypsinization for 30 minutes at 37° C. (Trypsin-EDTA; Gibco) in the presence of DNAse I (Roche; Meylan). The reaction was stopped by the addition of DMEM (Gibco) cell culture medium with 10% of FBS (Gibco). The suspension was triturated with a 10-ml pipette using a needle syringe 21G and centrifuged at 350×g for 10 minutes at room temperature. The resulting pellet is resuspended in culture medium containing Neurobasal medium (Gibco) supplemented with 2% B27 supplement (Gibco) and 2 mM of glutamine (Gibco). Viable cells were counted in a Neubauer cytometer using the trypan blue exclusion test (Sigma) and seeded on the basis of 30,000 cells per Petri dish (Nunc) precoated with poly-L-lysine. Cells were allowed to adhere for two hours and maintained in a humidified incubator at 37° C. in 5% CO2-95% air atmosphere. After adhesion, a vehicle control or dimebon was added at different concentrations to the medium. BDNF (1.85 nM) was used as a positive control for neurite growth. After treatment, cultures were washed in phosphate-buffered saline (PBS, Gibco) and fixed in glutaraldehyde 2.5% in PBS. Cells were fixed after 3 days growth. Several pictures (˜80) of cells with neurites without any branching were taken per condition with a camera (Coolpix 995; Nikon) fixed on microscope (Nikon, objective 40×). The length measurements were made by analysis of the pictures using software from Image-Pro Plus (France). The results were expressed as mean (s.e.m.). Statistical analysis of the data was performed using one way analysis of variance (ANOVA). […]
The effect of Dimebon (100 nM) on neurite outgrowth using primary hippocampal neurons was evaluated by measuring neurite length (expressed % of control, FIG. 5A) and number of neurites per neuron (FIG. 5B). The effects of vehicle, Dimebon and BDNF (50 ng/mL) were determined after incubations of 24 hours, 48 hours and 72 hours. […]
as §2

[3] = system: primary rat spinal motor neurons; experiment: Neurite outgrowth of primary rat spinal motor neurons cultured with dimebon; format: cell-based; conditions: picomolar and nanomolar concentrations; FIG. 4
Procedure: as §1, §2

[4] = system: BrdU positive cells/neurons in the hippocampus and dentate gyrus; experiment: Neurogenesis in healthy rats: BrdU / NeuN immunohistochemistry of hippocampus and dentate gyrus; format: in vivo, Wistar rats; conditions: 14 days
From the text: Wistar rats were obtained from Charles River or Harlan Winkelmann (Germany). Male rats were approximately 3 months old upon arrival at the animal colony. Animals were kept in an animal facility under standardized conditions and according to the animal welfare regulations of the Ministry of Science of the Austrian government. A record of bodyweights was maintained. The animals were allowed to acclimatize for at least one week prior to any experimental manipulations. Twelve rats per group were maintained on a 12 hour light/dark cycle. Three backup animals were maintained in order to compensate for animal loss. All rats were housed in groups of four per cage and had ad libitum access to food and water. Rats were randomly allocated to four different treatment groups receiving intraperitoneal (i.p.) 5-bromo-2-deoxyuridine (BrdU, Sigma #B9285, 50 mg/kg body weight (b.w.)) and either (i) Dimebon at 10 mg/kg b.w./twice a day; (ii) Dimebon at 30 mg/kg b.w./twice a day; (iii) Dimebon at 60 mg/kg b.w./twice a day; or (iv) 0.2 mL vehicle (saline) twice a day. Treatment with BrdU, a synthetic nucleoside analog of thymidine, is commonly used to detect proliferating cells in living tissues such as the brain. Dimebon and vehicle were administered orally twice a day in a volume of 0.2 mL. BrdU was administered every other day. The daily Dimebon or vehicle treatment was performed several minutes before BrdU treatment. On day 14, animals were sacrificed approximately four hours after the last Dimebon treatment and one day after the last BrdU treatment. Diluted dimebon was prepared fresh daily. At sacrifice, the rats were sedated using standard anesthesia. After transcardial perfusion with phosphate buffered saline (PBS) followed by 4% Paraformaldehyde/PBS, the brain from each rat was carefully removed, post-fixed in 4% Paraformaldehyde/PBS for one hour, transferred to 15% sucrose for cryoprotection, and shock-frozen in liquid isopentane. Brains were stored at −80° C. until cryo-cutting. The brains were cut sagittally using a cryotome and stored at −20° C. until staining. Five layers were cut with 10 sections at 20 micrometers per layer with an interlayer slice gap of 100 micrometers. Standard Cresyl-Violett staining was performed on two consecutive slices per animal. BrdU immunohistochemistry was quantified to provide a morphological overview of cell division. For the evaluation of BrdU positive cells/neurons, sections were processed by double-incubation with mouse anti-Neuronal Nuclei (NeuN) monoclonal antibody (Chemicon) and anti-BrdU (Abcam). One section per layer was treated in a three-day double-incubation with mouse anti-Neuronal Nuclei (NeuN) monoclonal antibody 1:800 (Chemicon, Hofheim. Germany) and anti-BrdU (sheep polyclonal to BrdU) 1:500 (Abcam, Cambridge, UK). The secondary antibodies were a Cy-3-conjugated pure affine goat anti-mouse IgG (H+L) 1:200 (Jackson ImmunoResearch, Cambridgeshire, UK) and a Cy 2-conjugated pure affine F(ab′)2 fragment of donkey anti-sheep IgG (H+L) 1:100 (Jackson ImmunoResearch, Cambridgeshire, UK). Briefly, the anti-NeuN antibody was incubated overnight at 4° C., the Cy3 antibody was incubated the next day for one hour at room temperature, followed by the anti-BrdU antibody overnight at 4° C. and the Cy2 antibody for one hour at room temperature. To open the cell surfaces before the BrdU incubation, slices were treated with 2N HCl for 15 minutes at 40° C. and then washed for 20 minutes in a methanol mixture (60 ml methanol, 2 ml H2O2, and 0.6 ml Triton X) to block endogenous peroxidases. Niss1 staining was used as an overview staining. Tiled images of the sagittal slice including the cortex and the hippocampus were recorded at 200-fold magnification. Each single image used a PCO PixelFly camera mounted on a NikonE800 microscope equipped with an software controlled (StagePro) automatic table. Both fluorescent colors, red for NeuN and green for BrdU, were recorded separately. For quantification, the images were merged. […]

[5] = system: primary rat hippocampal cells; experiment: Mitochondrial JC-1 staining in ionomycin-treated primary rat hippocampal cells; format: cell-based; conditions: Dimebon 0.25 nM and 2.5 nM; 0.25 μM ionomycin; compared with vehicle treatment
Procedure: (§3) Primary neuronal cultures were prepared from rat fetal tissue on the gestation days indicated from the cortex (day 17), hippocampus (day 19) or spine (day 15). Neurons were dissociated by trypsinization in the presence of DNAseI and trituration and cultured in Neurobasal (Gibco) medium supplemented with 2% B27 (Gibco), 0.5 mM L-Glutamine. Cells were plated on poly L-lysine coated plates, allowed to adhere and maintained at 37° C. in 5% CO2-95% air and then test compound was added for a period of 3 days. Cultures were fixed using 2.5% glutaraldehyde. Approximately 80 digital images were taken per condition. Neurite length was calculated using Image-Pro Plus. Each analysis was performed with two separate culture studies. Dimebon was tested at concentrations of 0.01-500 nM and BDNF at 50 ng/mL. Mitochondrial effects were assessed with primary rat hippocampal cells treated with Dimebon or vehicle and 0.25 μM ionomycin. Dimebon's effects on JC-1 mitochondrial staining was also assessed in ionomycin-treated human neuroblastoma cells (SK—N—SH). Mitochondrial accumulation of JC-1 was assessed by fluorescence microscopy.

[6] = system: human neuroblastoma cells (SK—N—SH); experiment: Mitochondrial JC-1 staining in ionomycin-treated SK-N-SH cells; format: cell-based
Procedure: as §3

Cc1ccc2c(c1)c1c(n2CCc2ccc(C)nc2)CCN(C)C1.Cl.Cl [Dimebon, 2,8-dimethyl-5-(2-(6-methyl-3-pyridyl)-ethyl)-2,3,4,5-tetrahydro-1H-pyrido[4,3-b]indole dihydrochloride]
neurite outgrowth of primary rat cortical neurons [1]: stimulated
effect on neurite length and number of neurites per neuron relative to BDNF ([2]; Dimebon 100 nM vs BDNF 50 ng/mL, 24, 48, 72 hours): comparable
neurite length ([2]; Dimebon 100 nM, incubations of 24, 48 and 72 hours, compared to vehicle, FIG. 5A): increased
number of neurites per neuron ([2]; Dimebon 100 nM, incubations of 24, 48 and 72 hours, compared to vehicle, FIG. 5B): increased
neurite outgrowth of primary rat hippocampal neurons ([2]; picomolar and nanomolar concentrations, 3 days growth, FIG. 3): stimulated
neurite outgrowth of primary rat spinal motor neurons [3]: stimulated
BrdU positive progenitor cells in the dentate gyrus ([4]; 30 mg/kg Dimebon vs vehicle, p=0.05, FIG. 7A): significant increase
BrdU positive progenitor cells in the hippocampus ([4]; 60 mg/kg Dimebon vs vehicle-treated group, p=0.05, FIG. 6A): significant increase
BrdU positive neurons (NeuN and BrdU IR) in the hippocampus ([4]; 60 mg/kg Dimebon vs vehicle-treated group, p=0.05, FIG. 6B): significant increase
BrdU positive progenitor cells in the dentate gyrus ([4]; 60 mg/kg Dimebon vs vehicle-treated group, p=0.05, FIG. 7A): significant increase
BrdU positive neurons (NeuN and BrdU IR) in the dentate gyrus ([4]; 60 mg/kg Dimebon vs vehicle-treated group, p=0.05, FIG. 7B): significant increase
total number of BrdU staining cells in the hippocampus ([4]; rats, oral twice a day, FIG. 6A): increases
number of BrdU staining neurons in the hippocampus ([4]; rats, oral twice a day, FIG. 6B): increases
total number of BrdU staining cells in the dentate gyrus ([4]; rats, oral twice a day, FIG. 7A): increases
number of BrdU staining neurons in the dentate gyrus ([4]; rats, oral twice a day, FIG. 7B): increases
mitochondrial JC-1 staining [5]: preserved
mitochondrial JC-1 staining [6]: preserved
